Experimental data taken from PubChem BioAssay (NCI).
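Dose response: 5 concentrations. Exposure: 48 h. Format: 96-well plates. Endpoint: linear interpolation; highest concentration if not reached. Here, GI50 denotes the concentration required for 50% inhibition of growth. TGI is the concentration that stops growth completely.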

tested on: NCI/ADR-RES ovarian; assay: growth of human tumour cells (NCI), 48 h

Structure (SMILES)	GI50 [µM]	TGI [µM]
Cc1nc(Nc2cccnc2)sc1C(=O)/C=C/c1ccc(F)cc1	3.24	> 100
N=c1c2c(-c3ccccc3)c(-c3ccccc3)n(Cc3ccccc3)c2ncn1C1CCC(O)CC1 (stereo unspecified)	0.717	18.4
O=c1c(F)cn(Cc2ccc(C34CC5CC(CC(C5)C3)C4)c(O)c2)c(=O)n1Cc1ccc(C23CC4CC(CC(C4)C2)C3)c(O)c1	14.3	28.9
NC1CCN(Cc2ccccc2)CC1	> 100	> 100
N#Cc1nn(-c2cc(=O)[nH]c3ccc(Cl)cc23)c(N)c1C#N	> 100	> 100
CCN1CCN(c2cc(C)c3cc(NC(=O)c4ccc(OC)c(OC)c4)ccc3n2)CC1	> 49.1	> 100
COC(=O)c1c2c(c(C)[n+]([O-])c1C)C(=O)C=C(NCc1ccc(F)cc1)C2=O	0.432	5.38
Nc1ncn([C@@H]2O[C@H](CO)[C@@H](O)[C@H]2O)c(=O)n1	1.2	10.6
CC(=O)Nc1ccc(-c2csc(Nc3cccc(-c4csc(C)n4)c3)n2)cc1	0.642	6.84
C=CCC1(c2ccc(OC)cc2)C=CC(=O)CC1 (stereo unspecified)		> 100

tested on: SK-MEL-2 melanoma; assay: growth of human tumour cells (NCI), 48 h

Structure (SMILES)	GI50 [µM]	TGI [µM]
CC1(C)OC2C(CO[Si](C)(C)C(C)(C)C)OC(n3c(I)c(C#C[Si](C)(C)C)c(=O)[nH]c3=O)C2O1 (stereo unspecified)	3.78	16.7
CN(C)CC[C@H](CSc1ccccc1)Nc1ccc(S(=O)(=O)NC(=O)c2ccc(N3CCN(Cc4ccccc4-c4ccc(Cl)cc4)CC3)cc2)cc1[N+](=O)[O-]	1.88	4.94
COc1ccc(-c2ccc(=O)oc2C#Cc2cc(OC)c(OC)c(OC)c2)cc1O	1.31	> 22.1
O=C(/C=C/c1ccc[nH]1)c1ccc(-n2ccc(C(F)(F)F)n2)cc1	> 100	> 100
O=C(c1ccco1)c1c(C(F)(F)F)nc2ccc(Cl)cc2[n+]1[O-]	> 100	> 100
CN(C)C1CCN(C(=O)c2ccc(NC(=O)Nc3ccc(-c4nc(N5CCOCC5)c5cccn5n4)cc3)cc2)CC1	0.0833	1.43
COc1cc(N=Nc2ccc(O)c3ncccc23)c2ncccc2c1	8.4	> 100
CCOC(=O)N[C@H]1CCc2cc(OC)c(OC)c(OC)c2-c2ccc(SC)c(=O)cc21	0.345	
Cc1nc(Nc2cccnc2)sc1C(=O)/C=C/c1ccc(F)cc1	2.86	9.03
N=c1c2c(-c3ccccc3)c(-c3ccccc3)n(Cc3ccccc3)c2ncn1C1CCC(O)CC1 (stereo unspecified)	1.08	4.38
O=C(Nc1cccc(Cl)c1)C(=O)C(C(=O)c1ccc2ccccc2c1)C1OC(=O)c2ccccc21 (stereo unspecified)		32.5
O=c1c(F)cn(Cc2ccc(C34CC5CC(CC(C5)C3)C4)c(O)c2)c(=O)n1Cc1ccc(C23CC4CC(CC(C4)C2)C3)c(O)c1	18.8	41.8
COCC(OC)C(CC=C(C#N)C#N)OC (stereo unspecified)		> 100
NC1CCN(Cc2ccccc2)CC1	> 100	> 100
N#Cc1nn(-c2cc(=O)[nH]c3ccc(Cl)cc23)c(N)c1C#N	> 100	> 100
On1c(-c2ccccc2)c(-c2ccccc2N2CCCC2)c2ccccc21		> 100
CCN1CCN(c2cc(C)c3cc(NC(=O)c4ccc(OC)c(OC)c4)ccc3n2)CC1	> 40.5	> 61.8
COC(=O)c1c2c(c(C)[n+]([O-])c1C)C(=O)C=C(NCc1ccc(F)cc1)C2=O	1.11	2.78
CC(C)C1=Cc2ccc3c(c2C(=O)C1=O)CCCC3(C)C		34.6
Nc1ncn([C@@H]2O[C@H](CO)[C@@H](O)[C@H]2O)c(=O)n1	0.612	3.83
CSc1nc(SC)c2c(C#N)[nH]nc2n1		> 100
CC(=O)Nc1ccc(-c2csc(Nc3cccc(-c4csc(C)n4)c3)n2)cc1	8.03	> 27.3
COc1ccc(CCN(C)C2CCC(C#N)(c3ccc(OC)c(OC)c3)CC2)cc1OC (stereo unspecified)		> 100
CCOC(=O)c1nc2c(OC)nn(O)cc-2c1[N+](=O)[O-]		34.9
C/C(CC(=O)Nc1ccc(C)c(C)c1)=N\N(c1ccccc1)c1ccccc1		> 100
COC(=O)/C(=N\NC(N)=S)C(C(=O)OC)C(=O)C(=O)Nc1ccc(C)cc1 (stereo unspecified)		> 100
O=C(OC1CCC(=C2SCCCS2)[C@H]1C1SCCCS1)c1ccccc1 (stereo partly specified)		> 100
O=C(/C(=C/c1ccc(Cl)cc1)c1ccccc1)c1ccccc1		36.6
c1ccc2c(OCCSCCCCCCCCCCSCCOc3cccc4ccccc34)cccc2c1		> 100
CN1CCC(=O)/C(=C/c2ccccc2)C1		42.1

tested on: TK-10 renal; assay: growth of human tumour cells (NCI), 48 h

Structure (SMILES)	GI50 [µM]	TGI [µM]
CC1(C)OC2C(CO[Si](C)(C)C(C)(C)C)OC(n3c(I)c(C#C[Si](C)(C)C)c(=O)[nH]c3=O)C2O1 (stereo unspecified)	6.44	20
CN(C)CC[C@H](CSc1ccccc1)Nc1ccc(S(=O)(=O)NC(=O)c2ccc(N3CCN(Cc4ccccc4-c4ccc(Cl)cc4)CC3)cc2)cc1[N+](=O)[O-]	2.44	5.37
COc1ccc(-c2ccc(=O)oc2C#Cc2cc(OC)c(OC)c(OC)c2)cc1O	6.88	> 100
O=C(/C=C/c1ccc[nH]1)c1ccc(-n2ccc(C(F)(F)F)n2)cc1	> 100	> 100
O=C(c1ccco1)c1c(C(F)(F)F)nc2ccc(Cl)cc2[n+]1[O-]	> 100	> 100
CN(C)C1CCN(C(=O)c2ccc(NC(=O)Nc3ccc(-c4nc(N5CCOCC5)c5cccn5n4)cc3)cc2)CC1	0.393	3.84
COc1cc(N=Nc2ccc(O)c3ncccc23)c2ncccc2c1	9.81	> 100
CCOC(=O)N[C@H]1CCc2cc(OC)c(OC)c(OC)c2-c2ccc(SC)c(=O)cc21	7.23	> 100
Cc1nc(Nc2cccnc2)sc1C(=O)/C=C/c1ccc(F)cc1	2.98	> 100
N=c1c2c(-c3ccccc3)c(-c3ccccc3)n(Cc3ccccc3)c2ncn1C1CCC(O)CC1 (stereo unspecified)	0.814	8.96
O=C(Nc1cccc(Cl)c1)C(=O)C(C(=O)c1ccc2ccccc2c1)C1OC(=O)c2ccccc21 (stereo unspecified)		77.4
O=c1c(F)cn(Cc2ccc(C34CC5CC(CC(C5)C3)C4)c(O)c2)c(=O)n1Cc1ccc(C23CC4CC(CC(C4)C2)C3)c(O)c1	15.7	30
COCC(OC)C(CC=C(C#N)C#N)OC (stereo unspecified)		> 100
NC1CCN(Cc2ccccc2)CC1	> 100	> 100
N#Cc1nn(-c2cc(=O)[nH]c3ccc(Cl)cc23)c(N)c1C#N	> 100	> 100
On1c(-c2ccccc2)c(-c2ccccc2N2CCCC2)c2ccccc21		> 100
CCN1CCN(c2cc(C)c3cc(NC(=O)c4ccc(OC)c(OC)c4)ccc3n2)CC1	> 59	98.5
COC(=O)c1c2c(c(C)[n+]([O-])c1C)C(=O)C=C(NCc1ccc(F)cc1)C2=O	3.3	9.55
CC(C)C1=Cc2ccc3c(c2C(=O)C1=O)CCCC3(C)C		11.2
CSc1nc(SC)c2c(C#N)[nH]nc2n1		> 100
CC(=O)Nc1ccc(-c2csc(Nc3cccc(-c4csc(C)n4)c3)n2)cc1	6.03	> 50
COc1ccc(CCN(C)C2CCC(C#N)(c3ccc(OC)c(OC)c3)CC2)cc1OC (stereo unspecified)		> 100
C=CCC1(c2ccc(OC)cc2)C=CC(=O)CC1 (stereo unspecified)		> 100
CCOC(=O)c1nc2c(OC)nn(O)cc-2c1[N+](=O)[O-]		30
C/C(CC(=O)Nc1ccc(C)c(C)c1)=N\N(c1ccccc1)c1ccccc1		> 100
COC(=O)/C(=N\NC(N)=S)C(C(=O)OC)C(=O)C(=O)Nc1ccc(C)cc1 (stereo unspecified)		> 100
O=C(OC1CCC(=C2SCCCS2)[C@H]1C1SCCCS1)c1ccccc1 (stereo partly specified)		> 100
O=C(/C(=C/c1ccc(Cl)cc1)c1ccccc1)c1ccccc1		56.8
c1ccc2c(OCCSCCCCCCCCCCSCCOc3cccc4ccccc34)cccc2c1		> 100
CN1CCC(=O)/C(=C/c2ccccc2)C1		29.6
